Experimental data reported in ChEMBL document CHEMBL1909545, “Synthesis, biological assay in vitro and molecular docking studies of new Schiff base derivatives as potential urease inhibitors” (Eur J Med Chem, 2011).
The source made the active and inactive calls. No cut-off for these calls is given here.

target: Urease (Canavalia ensiformis, UniProt P07374); experiment: Inhibition of jack bean urease assessed as ammonia production after 30 mins by indophenol method; details: not given
Sequence (P07374 whole entry): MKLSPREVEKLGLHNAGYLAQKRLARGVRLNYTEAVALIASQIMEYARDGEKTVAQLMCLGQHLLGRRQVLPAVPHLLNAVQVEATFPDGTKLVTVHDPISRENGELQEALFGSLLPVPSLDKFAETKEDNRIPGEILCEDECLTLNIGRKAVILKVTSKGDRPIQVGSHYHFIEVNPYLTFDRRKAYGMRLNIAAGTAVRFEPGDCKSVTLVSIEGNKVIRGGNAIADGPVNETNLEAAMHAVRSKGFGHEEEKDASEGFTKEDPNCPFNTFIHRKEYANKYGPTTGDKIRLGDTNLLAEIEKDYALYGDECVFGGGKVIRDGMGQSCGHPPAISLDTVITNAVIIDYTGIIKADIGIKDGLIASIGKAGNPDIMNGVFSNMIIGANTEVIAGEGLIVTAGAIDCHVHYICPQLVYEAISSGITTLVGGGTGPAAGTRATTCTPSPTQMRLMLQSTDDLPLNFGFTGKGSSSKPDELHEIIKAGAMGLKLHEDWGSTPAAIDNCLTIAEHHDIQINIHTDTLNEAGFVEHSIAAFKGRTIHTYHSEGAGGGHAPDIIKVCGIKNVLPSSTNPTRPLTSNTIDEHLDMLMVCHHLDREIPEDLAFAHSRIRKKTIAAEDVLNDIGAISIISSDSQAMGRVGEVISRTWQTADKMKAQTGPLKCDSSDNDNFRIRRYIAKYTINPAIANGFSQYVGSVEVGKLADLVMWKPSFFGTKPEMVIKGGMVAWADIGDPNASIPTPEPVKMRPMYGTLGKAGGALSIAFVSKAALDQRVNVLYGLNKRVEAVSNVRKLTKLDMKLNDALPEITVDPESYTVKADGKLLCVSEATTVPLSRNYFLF

In order of rising IC50:
1. N/C(S)=N/N=C/c1cccc([N+](=O)[O-])c1  102 nM
2. CN(C)c1ccc(/C=N/NC(N)=S)cc1  127 nM
3. COc1cccc(/C=N/NC(N)=S)c1  177 nM
4. NC(=S)N/N=C/c1ccccc1Cl  215 nM
5. NC(=S)N/N=C/c1cccc(O)c1O  220 nM
6. COc1cc(/C=N/NC(N)=S)cc(OC)c1O  233 nM
7. NC(=S)N/N=C/c1ccccc1OCc1ccccc1  263 nM
8. COc1ccc(/C=N/NC(N)=S)cc1OCc1ccccc1  330 nM
9. NC(=S)N/N=C/c1ccc(Cl)cc1  410 nM
10. NC(=S)N/N=C/C=C/c1ccccc1  457 nM
11. N/C(S)=N/N=C/c1ccc([N+](=O)[O-])cc1  547 nM
12. NC(=S)N/N=C/c1cccc(Cl)c1  670 nM
13. NC(=S)N/N=C/c1ccc(O)cc1  682 nM
14. NC(=S)N/N=C/c1ccc(Br)cc1  707 nM
15. C/C=C/C=N/NC(N)=S  746 nM
16. N/C(S)=N/N=C/c1cccc(Br)c1  767 nM
17. COc1ccc(/C=N/NC(N)=S)cc1  887 nM
18. COc1cc(/C=N/NC(N)=S)cc(OC)c1OC  989 nM

In order of rising Ki:
1. N/C(S)=N/N=C/c1cccc([N+](=O)[O-])c1  90 nM
2. CN(C)c1ccc(/C=N/NC(N)=S)cc1  122 nM
3. NC(=S)N/N=C/c1cccc(O)c1O  127 nM
4. COc1cccc(/C=N/NC(N)=S)c1  127 nM
5. COc1cc(/C=N/NC(N)=S)cc(OC)c1O  134 nM
6. NC(=S)N/N=C/c1ccccc1OCc1ccccc1  152 nM
7. NC(=S)N/N=C/c1ccccc1Cl  170 nM
8. COc1ccc(/C=N/NC(N)=S)cc1OCc1ccccc1  191 nM
9. NC(=S)N/N=C/c1ccc(O)cc1  391 nM
10. NC(=S)N/N=C/c1ccc(Cl)cc1  398 nM
11. NC(=S)N/N=C/C=C/c1ccccc1  407 nM
12. C/C=C/C=N/NC(N)=S  430 nM
13. N/C(S)=N/N=C/c1ccc([N+](=O)[O-])cc1  497 nM
14. NC(=S)N/N=C/c1cccc(Cl)c1  625 nM
15. N/C(S)=N/N=C/c1cccc(Br)c1  670 nM
16. NC(=S)N/N=C/c1ccc(Br)cc1  770 nM
17. COc1ccc(/C=N/NC(N)=S)cc1  807 nM
18. COc1cc(/C=N/NC(N)=S)cc(OC)c1OC  910 nM
19. NC(N)=S [THIOUREA]  19600 nM

target: Urease (Canavalia ensiformis) (UniProt P07374); details: 0.01 to 0.001 uM
Sequence (P07374 whole entry, looked up): as the sequence (P07374 whole entry) above

For `N/C(S)=N/N=C/c1cccc([N+](=O)[O-])c1`, the inhibition was “Active”.
